In PubChem BioAssay (NCI):
“And” between values parts separate entries of the source, which are not always exact repeats. Equal entries are not always repeated.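 Values below derive from 48-hour exposures of cells grown in 96-well plates, with endpoints linearly interpolated between the two concentrations bracketing the appropriate inhibition level. GI50 marks 50% less growth. Definition used: TGI = concentration required for complete inhibition of growth.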

Tested on: MDA-MB-468 breast
Test: NCI-60 cell line screen, 48 h

Structure (SMILES) | GI50 | TGI
COc1ccccc1C(=O)/C=C/c1cc2cccc(OC)c2[nH]c1=O | 0.104 µM | 2.01 µM
COc1cc2cc(Oc3ccc(NC(=O)Nc4ccc(F)c(C(F)(F)F)c4)cc3)c(C)nc2cc1OCCN1CCCCC1 | 1.47 µM | 2.92 µM
COc1cc(-c2cc(C(=O)N3CCN(C(=O)c4ccccc4NCc4ccco4)CC3)nc3cc(-c4ccccc4)nn23)cc(OC)c1OC | 2.32 µM | 7.2 µM
O=C1c2cc3c(cc2-c2c1c1cc(Cl)c(Cl)cc1c(=O)n2CCCn1ccnc1)OCO3 | < 0.01 µM | 0.0458 µM
CCCCCCCCCCCCc1ccc(C(=O)/C=C/C(=O)O)cc1 | 1.66 µM | 3.35 µM
O=C(Nc1n[nH]c2nc(-c3ccco3)c(Br)cc12)C1CC1 |  | > 25 µM
Cc1cc(NC(=O)C2c3ccccc3C(=O)N(CC(C)C)C2c2cccs2)no1 (stereo not drawn) | 43.8 µM | > 100 µM
O/N=C1\CCc2cc(-c3nc(C4CCNCC4)[nH]c3-c3ccncc3)ccc21 | > 25 µM | > 25 µM
C1CCC([PH+](C2CCCCC2)C2CCCCC2[PH+](C2CCCCC2)C2CCCCC2)CC1.[Au].[CH-]1CCCCC1C1CCCC[N-]1 (stereo not drawn) | 0.154 µM | 0.641 µM
N#C/C(=C\c1c(-c2ccccc2)[nH]c2ccccc12)C(=O)c1ccc(Cl)cc1 | 0.527 µM | 6.29 µM
CCCCCCCCCCCCCCCCCCNC(=O)[C@H]1CSC(c2ccc(OC)c(F)c2)N1 (stereo partly drawn) | 18.6 µM | > 50.9 µM
CS(=O)(=O)c1nccc(-c2c(-c3ccc(F)c(OCCc4ccc(F)cc4)c3)nc3sccn23)n1 | 1.81 µM | 3.53 µM
CC1(C)N=C(N)N=C(N)N1c1cccc(/C=C/C=C/c2cccc([N+](=O)[O-])c2)c1 | 0.346 µM | 12 µM
COC(=O)[C@]12CC[C@@H](C)[C@H](C)[C@@H]1C1=CC[C@@H]3[C@@]4(C)CC(=O)[C@H](O)[C@@]5(C)COC(=C45)C[C@@]3(C)[C@]1(C)CC2 | 14.9 µM | 30.5 µM
Nc1cccc2c1C(=O)N(C1CCC(=O)NC1=O)C2=O (stereo not drawn) | > 100 µM | > 100 µM
O=C(Nc1ccncc1)C(=O)c1cn(S(=O)(=O)c2ccc(Br)cc2)c2ccccc12 | 0.608 µM | 7.84 µM
COc1cc(CCc2cc(NC(=O)c3ccc(N4C[C@@H](C)N[C@@H](C)C4)cc3)n[nH]2)cc(OC)c1 | > 10 µM and 8.1 µM | > 10 µM and 20.8 µM
O=C1/C(=C\c2ccc(Cl)cc2)CN(C(=S)Nc2ccccc2)C/C1=C\c1ccc(Cl)cc1 | 0.457 µM | 1.66 µM
C[C@H]1[C@H](OC(=O)CCC(=O)O)O[C@@H]2O[C@]3(C)CC[C@H]4[C@H](C)CC[C@@H]1[C@@]24OO3 | 2.86 µM | 24.7 µM
C[C@@H](c1ccc2nccn2c1)n1nnc2ncc(-c3cnn(C)c3)nc21 | 38.6 µM | > 100 µM
COc1ccc(N(C)c2nc(C)nc3ccccc23)cc1 | < 0.01 µM | < 0.01 µM
CCC1(OC(=O)CN2CCN(CCO)CC2)C(=O)OCc2c1cc1n(c2=O)Cc2cc3ccccc3nc2-1 (stereo not drawn) | 0.149 µM | 0.449 µM
